Test results reported in patent US6399634B1, “Benzothiophene compounds, compositions, and methods” (Eli Lilly and Company, priority 1994, dated 2002).
Where a name gives a salt, the structure may show the parent alone.

What was measured:
[1] = system: ovariectomized (OVX) rats; assay: Uterine wet weight in ovariectomized rat post-menopausal model, 4 days of dosing; format: in vivo, Sprague Dawley rats; conditions: oral, daily for 4 days
Procedure: In the examples illustrating the methods, a post-menopausal model was used in which effects of different treatments upon circulating lipids were determined.
(§1) Seventy-five day old female Sprague Dawley rats (weight range of 200 to 225 g) were obtained from Charles River Laboratories (Portage, Mich.). The animals were either bilaterally ovariectomized (OVX) or exposed to a Sham surgical procedure at Charles River Laboratories, and then shipped after one week. Upon arrival, they were housed in metal hanging cages in groups of 3 or 4 per cage and had ad libitum access to food (calcium content approximately 0.5%) and water for one week. Room temperature was maintained at 22.2°±1.7° C. with a minimum relative humidity of 40%. The photoperiod in the room was 12 hours light and 12 hours dark.
(§2) Dosing Regimen Tissue Collection. After a one week acclimation period (therefore, two weeks post-OVX) daily dosing with test compound was initiated. 17α-ethynyl estradiol or the test compound were given orally, unless otherwise stated, as a suspension in 1% carboxymethylcellulose or dissolved in 20% cyclodextrin. Animals were dosed daily for 4 days. Following the dosing regimen, animals were weighed and anesthetized with a ketamine: Xylazine (2:1, V:V) mixture and a blood sample was collected by cardiac puncture. The animals were then sacrificed by asphyxiation with CO2, the uterus was removed through a midline incision, and a wet uterine weight was determined.

[2] = system: Uterine Eosinophil Peroxidase (EPO); assay: Uterine Eosinophil Peroxidase (EPO) Assay on uteri of dosed OVX rats; format: in vivo, Sprague Dawley rats; conditions: female, Sprague Dawley, rat, in vivo, po, 4 days
Excerpt: as §1, §2
Uterine Eosinophil Peroxidase (EPO) Assay. Uteri were kept at 4° C. until time of enzymatic analysis. The uteri were then homogenized in 50 volumes of 50 mM Tris buffer (pH−8.0) containing 0.005% Triton X-100. Upon addition of 0.01% hydrogen peroxide and 10 mM o-phenylenediamine (final concentrations) in Tris buffer, increase in absorbance was monitored for one minute at 450 nm. The presence of eosonophils in the uterus is an indication of estrogenic activity of a compound. The maximal velocity of a 15 second interval was determined over the initial, linear portion of the reaction curve.

[3] = system: ovariectomized (OVX) rats; assay: Serum cholesterol analysis in ovariectomized rats, 4 days of dosing; format: in vivo, Sprague Dawley rats; conditions: oral, daily for 4 days
Excerpt: as §1, §2
Cholesterol Analysis. Blood samples were allowed to clot at room temperature for 2 hours, and serum was obtained following centrifugation for 10 minutes at 3000 rpm. Serum cholesterol was determined using a Boehringer Mannheim Diagnostics high performance cholesterol assay. Briefly the cholesterol was oxidized to cholest-4-en-3-one and hydrogen peroxide. The hydrogen peroxide was then reacted with phenol and 4-aminophenazone in the presence of peroxidase to produce a p-quinone imine dye, which was read spectrophotemetrically at 500 nm. Cholesterol concentration was then calculated against a standard curve. The entire assay was automated using a Biomek Automated Workstation.

[4] = system: ovariectomized (OVX) rats; assay: Osteoporosis Test Procedure: femur bone density in OVX rats after 35 days of dosing; format: in vivo, Sprague Dawley rats; conditions: mean ± SEM
Excerpt: Seventy-five day old female Sprague Dawley rats (weight range of 200 to 225 g) were obtained from Charles River Laboratories (Portage, Mich.). The animals were either bilaterally ovariectomized (OVX) or exposed to a Sham surgical procedure at Charles River Laboratories, and then shipped after one week. Upon arrival, they were housed in metal hanging cages in groups of 3 or 4 per cage and had ad libitum access to food (calcium content approximately 0.5%) and water for one week. Room temperature was maintained at 22.2°±1.7° C. with a minimum relative humidity of 40%. The photoperiod in the room was 12 hours light and 12 hours dark. Following the General Preparation Procedure, infra, the rats were treated daily for 35 days (6 rats per treatment group) and sacrificed by decapitation on the 36th day. The 35 day time period was sufficient to allow maximal reduction in bone density, measured as described herein. At the time of sacrifice, the uteri were removed, dissected free of extraneous tissue, and the fluid contents were expelled before determination of wet weight in order to confirm estrogen deficiency associated with complete ovariectomy. […] The uteri were then placed in 10% neutral buffered formalin to allow for subsequent histological analysis. The right femurs were excised and scanned at the distal metaphysis 1 mm from the patellar groove with single photon absorptiometry. Results of the densitometer measurements represent a calculation of bone density as a function of the bone mineral content and bone width. In accordance with the above procedures, compounds of the present invention and ethynyl estradiol (EE2) in 20% hydroxypropyl β-cyclodextrin were orally administered to test animals. Data presented in Tables 5 and 6 below are the results of these treatments compared to intact and ovariectomized test animals. Results are reported as the mean±the standard error of the mean.

[5] = system: MCF-7 breast adenocarcinoma cells; assay: MCF-7 Proliferation Assay (tritiated thymidine); format: cell-based; conditions: Homo sapiens, MCF7; MCF-7 cells, 48 hours with drug, tritiated thymidine pulse 4 hours
Procedure: MCF-7 breast adenocarcinoma cells (ATCC HTB 22) were maintained in MEM (minimal essential medium, phenol red-free, Sigma, St. Louis, Mo.) supplimented with 10% fetal bovine serum (FBS) (V/V), L-glutamine (2 mM), sodium pyruvate (1 mM), HEPES {(N-[2-hydroxyethyl]piperazine-N′-[2-ethanesulfonic acid]10 mM}, non-essential amino acids and bovine insulin (1 ug/mL) (maintenance medium). Ten days prior to assay, MCF-7 cells were switched to maintenance medium supplemented with 10% dextrancoated charcoal stripped fetal bovine serum (DCC-FBS) assay medium) in place of 10% FBS to deplete internal stores of steroids. MCF-7 cells were removed from maintenance flasks using cell dissociation medium (Ca++/Mg++ free HBSS (phenol red-free) supplemented with 10 mM HEPES and 2 mM EDTA). Cells were washed twice with assay medium and adjusted to 80,000 cells/mL. Approximately 100 μL (8,000 cells) were added to flat-bottom microculture wells (Costar 3596) and incubated at 37° C. in a 5% CO2 humidified incubator for 48 hours to allow for cell adherence and equilibration after transfer. Serial dilutions of drugs or DMSO as a diluent control were prepared in assay medium and 50 μL transferred to triplicate microcultures followed by 50 μL assay medium for a final volume of 200 μL. After an additional 48 hours at 37° C. in a 5% CO2 humidified incubator, microcultures were pulsed with tritiated thymidine (1 uCi/well) for 4 hours. Cultures were terminated by freezing at −70° C. for 24 hours followed by thawing and harvesting of microcultures using a Skatron Semiautomatic Cell Harvester. Samples were counted by liquid scintillation using a Wallac BetaPlace β counter. Results in Table 7 below show the IC50 for certain compounds of the present invention.

Oc1ccc(-c2sc3cc(O)ccc3c2C(O)c2ccc(OCCN3CCCCC3)cc2)cc1 (stereo not drawn) [(b)-Ex2, [6-Hydroxy-2-(4-Hydroxyphenyl)Benzo[B]Thien-3-Yl][4-[2-(1-Piperidinyl)Ethoxy]Phenyl]Methanol]
Uterine Weight (% increase vs. OVX) ([1]; dose 0.1 mg/kg): 52.2% | Uterine Weight (% increase vs. OVX) ([1]; dose 1.0 mg/kg): 39.1% | Uterine Weight (% increase vs. OVX) ([1]; dose 10.0 mg/kg): 45.6% | Uterine EPO (V. max) ([2]; 0.1 mg/kg): 7.4 | Uterine EPO (V. max) ([2]; 1 mg/kg): 4.7 | Uterine EPO (V. max) ([2]; 10 mg/kg): 14.5 | Serum Cholesterol (% decrease vs. OVX) ([3]; dose 0.1 mg/kg): 22.2% | Serum Cholesterol (% decrease vs. OVX) ([3]; dose 1.0 mg/kg): 43.5% | Serum Cholesterol (% decrease vs. OVX) ([3]; dose 10.0 mg/kg): 61.6%

Oc1ccc(-c2sc3cc(O)ccc3c2Cc2ccc(OCCN3CCCCC3)cc2)cc1 [(k)-Ex11, [6-Hydroxy-2-(4-Hydroxyphenyl)Benzo[B]Thien-3-Yl][4-[2-(1-Piperidinyl)Ethoxy]Phenyl]Methane Hydrochloride]
Uterine Weight (% increase vs. OVX) ([1]; dose 0.1 mg/kg): 4.0% | Uterine Weight (% increase vs. OVX) ([1]; dose 1.0 mg/kg): 23.1% | Uterine Weight (% increase vs. OVX) ([1]; dose 10.0 mg/kg): 5.2% | Uterine EPO (V. max) ([2]; 0.1 mg/kg): 7.3 | Uterine EPO (V. max) ([2]; 1 mg/kg): 4.8 | Uterine EPO (V. max) ([2]; 10 mg/kg): 5.5 | Serum Cholesterol (% decrease vs. OVX) ([3]; dose 0.1 mg/kg): 43.7% | Serum Cholesterol (% decrease vs. OVX) ([3]; dose 1.0 mg/kg): 63.0% | Serum Cholesterol (% decrease vs. OVX) ([3]; dose 10.0 mg/kg): 60.7%

CC(C)(C)C(=O)Oc1ccc(-c2sc3cc(OC(=O)C(C)(C)C)ccc3c2Cc2ccc(OCCN3CCCCC3)cc2)cc1 [(q)-Ex17, [6-{1,1,1-Trimethylacetyloxy}-2-(4-{1,1,1-Trimethylacetyloxy}Phenyl)Benzo[B]Thien-3-Yl][4-[2-(1-Piperidinyl)Ethoxy]Phenyl]Methane Hydrochloride]
Uterine Weight (% increase vs. OVX) ([1]; dose 0.1 mg/kg): −22.7% | Uterine Weight (% increase vs. OVX) ([1]; dose 1.0 mg/kg): −32.4% | Uterine Weight (% increase vs. OVX) ([1]; dose 10.0 mg/kg): −25.2% | Uterine EPO (V. max) ([2]; 0.1 mg/kg): 3.1 | Uterine EPO (V. max) ([2]; 1 mg/kg): 3.0 | Uterine EPO (V. max) ([2]; 10 mg/kg): 2.8 | Serum Cholesterol (% decrease vs. OVX) ([3]; dose 0.1 mg/kg): 55.8% | Serum Cholesterol (% decrease vs. OVX) ([3]; dose 1.0 mg/kg): 56.8% | Serum Cholesterol (% decrease vs. OVX) ([3]; dose 10.0 mg/kg): 58.8% | Bone Density ([4]; Table 5, oral, 0.01 mg/kg, OVX control 26.18, intact control 70.22, * P <= 0.05): 17.63 ± 2.94 mg/cm/cm | Bone Density ([4]; Table 5, oral, 0.1 mg/kg, OVX control 26.18, intact control 70.22, * P <= 0.05): 24.77 ± 4.65 mg/cm/cm | Bone Density ([4]; Table 6, oral, 0.01 mg/kg, OVX control 32.46, intact control 81.27, * P <= 0.05): 36.44 ± 44 mg/cm/cm | Bone Density ([4]; Table 6, oral, 1.0 mg/kg, OVX control 32.46, intact control 81.27, * P <= 0.05): 36.07 ± 4.20 mg/cm/cm | IC50 [5]: 0.01 nM

CCCCS(=O)(=O)Oc1ccc(-c2sc3cc(OS(=O)(=O)CCCC)ccc3c2Cc2ccc(OCCN3CCCCC3)cc2)cc1 [(r)-Ex18, [6-{n-Butylsulfonoyloxy}-2-(4-{n-Butylsulfonoyloxy}Phenyl)Benzo[B]Thien-3-Yl][4-[2-(1-Piperidinyl)Ethoxy]Phenyl]Methane Hydrochloride]
Uterine Weight (% increase vs. OVX) ([1]; dose 0.1 mg/kg): −16.6% | Uterine Weight (% increase vs. OVX) ([1]; dose 1.0 mg/kg): −18.4% | Uterine Weight (% increase vs. OVX) ([1]; dose 10.0 mg/kg): −19.5% | Uterine EPO (V. max) ([2]; 0.1 mg/kg): 1.8 | Uterine EPO (V. max) ([2]; 1 mg/kg): 3.5 | Uterine EPO (V. max) ([2]; 10 mg/kg): 2.8 | Serum Cholesterol (% decrease vs. OVX) ([3]; dose 0.1 mg/kg): 65.4% | Serum Cholesterol (% decrease vs. OVX) ([3]; dose 1.0 mg/kg): 67.0% | Serum Cholesterol (% decrease vs. OVX) ([3]; dose 10.0 mg/kg): 67.9% | IC50 [5]: 1000 nM
